This is an account of results in patent US6943000B2, “JNK3 modulators and methods of use” (priority 1997, dated 2005).

What all share (format): in vivo, mouse
Data set [1] has as its system mice. Briefly: Pentetrazole (PTZ)-induced seizures in wild-type and JNK3(−/−) mice. From the text: Since the resistance to KA-induced seizures varied between littermates (+/+ and +/− are less resistant than −/− mice), the observed differential susceptibility cannot be attributed to a difference between mouse strains (Schauwecker and Steward, Proc. Nat. Acad. Sci. USA 94:4103-4108, 1997). However, the resistance of JNK3 deficient mice to KA-induced seizures could be due to decreased drug penetration across the blood-brain barrier or an increased GABA (gamma-aminobutyric acid) inhibitory postsynaptic potential (IPSP), or the ablation of a specific signal transduction pathway mediated by the JNK3 protein kinase. To distinguish between these possibilities, the response of JNK3 (−/−) and wild-type mice to another epileptogenic agent, pentetrazole (PTZ) (Sigma), was examined. PTZ was selected due to its ability to induce seizures by blocking the GABA-IPSPs (Ben-Ari et al., Neurosci. 6:1361-1391, 1981).
Thus, the differential susceptibility to KA toxicity in JNK3(−/−) mice can neither be explained as a consequence of poor drug delivery to the nervous system nor by potent GABA-IPSPs in the neural circuit. Furthermore, we examined the expression of the kainate-type glutamate receptor subunits GluR5-7 (Pharmingen cat. No. 60006E) by immunocytochemistry using standard methods.

In data set [2] the test system is hippocampal neurons. Briefly: Kainate-induced neuronal damage in the hippocampus (Nissl's stain, GFAP, TUNEL, toluidine stain). The method, then:
These experiments were performed as follows. Wild-type and JNK3 (−/−) mice were killed and fixed by transcardial perfusion of 4% paraformaldehyde and 1.5% glutaraldehyde three days after the injection of KA (30 mg/kg, i.p.). Semithin and thin sections of brain were prepared using a Vibratome and embedded in Epon. Tissue blocks were prepared using a microtome with a diamond tube for 1 μm-thick semithin sections examined by toluidine blue staining, and for ultrathin sections examined by electron microscopy. Nissl's stain was used for initial examination of damage to the hippocampus (Kluver et al., J. Neuropath. Exp. Neuro. 12:400-403, 1953). GFAP immunocytochemistry was also used to assess cell destruction in the hippocampus (Hsu et al., supra). Nissl's staining was also performed as described above. TUNEL assays, used to evaluate apoptosis, were performed using cryostat sections (50 μm) of cerebral hemispheres that were cryoprotected with sucrose. The TUNEL assay was modified from the terminal deoxynucleotidyl transferase (TdT)-mediated dUTP nick end labeling assay (Gavrieli et al., J. Cell. Biol. 119:493-501, 1992). Briefly, tissue sections, directly mounted on a salinated slide, were permeablized with 2% TRITON® X-100 (20 minutes at room temperature) and then incubated for nick end-labeling for 2 hours at 37° C. using 0.32 U/μl TdT (Boehringer Mannheim, cat# 220582) and 2 μM digoxigenin-11-dUTP (Boehringer Mannheim, cat# 1573152) in a final volume of 40 μl. The tissues were incubated with anti-digoxigenin antibody (Boehringer Mannheim, cat# 1333062) diluted 500-fold, and processed for immunocytochemistry using standard procedures (Hsu et al., supra).
The damage to the hippocampus caused by KA was initially examined by Nissl's stain. The KA-induced cell loss caused either a breach of staining of the pyramidal neurons in the CA3 region or a diffuse sparse staining throughout the CA1 subfield. […] Groups of small pyknotic nuclei and positively TUNEL-labeled cells were found in the hippocampal CA3 subfield devoid of Nissl's staining. […] Since the TUNEL method and the pyknosis morphology only indicated the extent of cell damage at one time point of a dynamic process, immunostaining of damage-induced GFAP was also used as an independent assessment of the extent of cell destruction in the hippocampus. Consistent with the patterns of Nissl's, toluidine, and TUNEL staining, an increased number of strongly GFAP-labeled astrocytes was found either in the hippocampal CA3 or CAl regions. Thus, a combination of Nissl's stain, GFAP immunocytochemistry, TUNEL method, and toluidine stain of semithin sections was used to classify the KA-induced damage in the mouse hippocampus.
A total of 17 wild-type and 18 JNK3(−/−) mice were examined. The table was compiled from two sets of data. First, wild-type (n=11) and JNK3 (−/−) (n=10) mice were sacrificed on the fifth day after a single injection of KA (30 mg/kg, i.p.). Second, wild-type (n=6) and JNK3 (−/−) (n=8) mice received an injection of KA (30 mg/kg, i. p.) for five consecutive days and examined two days following the final injection. […] The ratio of no cell loss/CA3 lesion/CA3+CA1 lesion was 2/7/2 in the single-injection experiments, and 2/2/2 in the multiple injection experiments.

Data set [3] deals with hippocampal neurons. The description is as above. The settings on record: KA 45 mg/kg, JNK2(−/−) mice as printed.
For data set [4], the system named is mice. As to the kind of experiment: KA-induced seizures in wild-type and JNK3(−/−) mice. The method, then:
JNK3(−/−) mice and their wild-type littermates were injected intraperitoneally (i.p.) with 30 mg/kg KA to induce seizures (Ben-Ari, supra). In wild-type mice, the administration of KA first induced “staring spells” with abnormal body posture, then progressed to head nodding (“wet-dog shakes”), fore-paw tremor, rearing, loss of postural control, and eventually, continuous convulsions. […] Wild-type and heterozygous mice developed motor symptoms of seizures, including rearing, at 30 to 40 minutes post-injection. The JNK3 (−/−) mice, in contrast, developed much milder symptoms, mainly consisting of “staring” spells and occasional myoclonic tremors. […] Further, JNK3(−/−) mice recovered from the drug administration more rapidly than wild-type mice (FIG. 7). Seizure classifications as shown in FIGS. 7 and 8 are: 1, arrest of motion; 2, myoclonic jerks of the head and neck, with brief twitching movements; 3, unilateral clonic activity; 4, bilateral forelimb tonic and clonic activity; and 5, generalized tonic-clonic activity with loss of postural tone, often resulting in death.

Data set [5] relates to c-Jun phosphorylated at Ser-73. Briefly: KA-induced phosphorylation of c-Jun in hippocampus (immunocytochemistry). The following applies: KA 30 mg/kg i.p., two hours after injection. The method, then:
To further define this phenomenon, the distribution of KA-induced c-Fos and c-Jun immunoreactivity along the synaptic circuit of the hippocampus was examined. In these experiments, homozygous mutant and control wild-type mice were killed and fixed by transcardial perfusion of 4% paraformaldehyde at 2 or 6 hours after the injection of KA (30 mg/kg, i.p.). Brains from both groups were removed, post-fixed for one hour, and sectioned on a Vibratome ([…]). Tissue sections were processed by immunocytochemistry to detect the expression of c-June (Santa Cruz, cat# sc-45), c-Fos (Santa Cruz, cat# sc-52), and phospho-specific c-Jun (Ser-73) (New England Biolabs, #9164S). Sections were floated in a solution of the primary antibody (diluted 200× in PBS) and incubated overnight at room temperature. Secondary antibody incubation, avidin-biotin conjugated peroxidase (Vectastain Elite ABC kit, Vector Lab.), and DAB (3, 3′-diaminobenzidine, Sigma) reactions were performed using standard procedures (Hsu et al., supra). In the absence of KA, there was no detectable c-Fos expression and only a few c-Jun-positive cells within the dentate gyrus. […]
In addition, there was a dynamic change of the distribution of phosphorylated c-Jun in the wild type mouse hippocampus. […] In contrast, no labeling of phosphorylated c-Jun was detected in the JNK3(−/−) mice at the same time point. […]

Data set [6] concerns AP-1 transcriptional activity. As to the kind of experiment: KA-induced AP-1 transcriptional activity (luciferase assay, AP1-luc mice). The following applies: KA 30 mg/kg i.p. An excerpt: Since the phosphorylation of c-Jun is an important initial event during the induction of AP-1 transcriptional activity (Whitemarsh et al., supra; Yang et al., supra), whether the observed attenuation of c-Jun phosphorylation would lead to decreased induction of AP-1 transcriptional activity in JNK3 (−/−) mice was examined. JNK(-1-) mice were crossed with transgenic AP-1 luciferase (AP1-luc) mice (Rincon et al., Embo. J. 13:4370-4381, 1994) and progeny back crossed. The JNK3(−/−)/API-Luc(−/+) mice were used in experiments with JNK3(+/+) mice to compare the level of KA-induced AP-1 transcriptional activity in the presence or absence of JNK3. The AP1-luc mice contain the firefly luciferase gene under the control of four copies of a consensus AP-1 binding site in the context of the minimal rat prolactin promoter. It has been established that the expression of luciferase in these mice is due to the presence of the AP-1 regulatory element.
In the luciferase assay, mice were sacrificed at intervals after injection of KA (30 mg/kg, i.p.), and relative luciferase activity compared with that detected in hippocampal lysates obtained from mice injected with vehicle (saline). Mice were decapitated, brains were dissected, and brain tissues were immediately lysed in buffer containing 25 mM Hepes pH 7.4, 1% TRITON®X-100, 1 mM EDTA, 1 mM phenylmethyl sulfonyl fluoride, and 10 μg/ml leupeptin (Promega, Madison, Wis.). Luciferase activity was measured as described in Rincon and Flavell (Embo. J. 13:4370-4381, 1994). The injection of KA (30 mg/kg, i.p.) caused a large induction of AP-1 transcriptional activity in the hippocampus of wild-type mice, as evidenced by the induction of luciferase activity.
The relative luciferase activity in the hippocampus and cerebellum prepared from wild-type (+/+) and JNK3 (−/−) mice was measured following KA injection. Each time point represents the mean of three to five (+SEM) individual animals. […]

Where [7] appears, read: KA 30 mg/kg i.p., JNK3 genotype +/+.
The mark [8] stands for this setting: KA 30 mg/kg i.p., JNK3 genotype −/−.
The mark [9] stands for this setting: KA 30 mg/kg i.p., wild-type mice.

With `C1CCc2nnnn2CC1` [PTZ, pentetrazole], the “seizure severity, JNK3(−/−) mice versus wild-type littermates” value in data set [1] (PTZ 30, 40, 50, 60 mg/kg i.p.) is reported as “comparable severity”. Moreover, the “time to abrupt general tonic-clonic seizures after injection” value in data set [1] (PTZ i.p.) is reported as “within five minutes”.

Take `C=C(C)[C@H]1CN[C@H](C(=O)O)[C@H]1CC(=O)O` [KA, kainic acid]: the hippocampal damage entry in data set [2] (KA 30 mg/kg i.p., JNK3(−/−) mice (n=18)) was “no apparent hippocampal damage”. Also, in data set [2] (setting [7]), the “Including CA1 cell loss” value is 4 number of animals, the “No perceivable cell loss” value is reported as 4 number of animals and the “Selective CA3 cell loss” value is 9 number of animals. For the same molecule, in data set [2] (setting [8]), the “Including CA1 cell loss” value is 0 number of animals, the “No perceivable cell loss” value is 18 number of animals and the “Selective CA3 cell loss” value is on record as 0 number of animals. In data set [2] (setting [9]), the “animals with damage of the hippocampal CA3 region” value is on record as 53%, the “animals with damage of the hippocampal CA3 region (fraction)” value is 9/17, the “animals with massive cell loss throughout the entire hippocampal CA1 region” value is reported as 24% and the “animals with massive cell loss throughout the entire hippocampal CA1 region (fraction)” value is given as 4/17. For the same molecule, the “ratio of no cell loss/CA3 lesion/CA3+CA1 lesion” value in data set [2] (wild-type mice, KA 30 mg/kg i.p. for five consecutive days, examined two days after final injection) was 2/2/2. The “ratio of no cell loss/CA3 lesion/CA3+CA1 lesion” value in data set [2] (wild-type mice, single injection of KA 30 mg/kg i.p., sacrificed on the fifth day) is recorded as 2/7/2. Besides, in data set [3], the “animals with cell damage (fraction)” value is reported as 2/15. In data set [3] (p<0.005), the “animals with cell damage” value is on record as 13%. In addition, the seizure severity result in data set [4] (KA 30 mg/kg i.p., JNK3(−/−) mice) is on record as “did not develop grand mal seizures”. Moreover, the “time at which seizure activities subsided” value in data set [4] (setting [9]) is on record as “one hour after injection”. For the same molecule, in data set [4] (KA 45 mg/kg i.p., JNK3(−/−) mice), the survival entry is given as “all of the JNK3(−/−) mice survived”. The “mice that died from continuous tonic clonic convulsions” value in data set [4] (KA 45 mg/kg i.p., wild-type mice) was “more than 60%”. Moreover, the “phosphorylated c-Jun in hippocampus” value in data set [5] (JNK3(−/−) mice) is “only a trace amount”. Also, the “phosphorylated c-Jun in the dentate gyrus and CA3/CA4 region of the hippocampus” value in data set [5] (wild-type mice) was “high level of phosphorylated c-Jun”. Further, the “AP-1 activity in hippocampus, wild-type compared with JNK3(−/−) mice” value in data set [6] (15 hours after injection) was “approximately four-fold greater”. Besides, in data set [6] (three days after injection), the “AP-1 activity in hippocampus, wild-type compared with JNK3(−/−) mice” value is “more than six times higher”. Further, in data set [6] (wild-type AP1-luc mice), the “time of peak luciferase activity in hippocampus” value is “three days”.
